# Data: patent US9409906B2, “Pyrimido[4,5-B]indole derivatives and use thereof in the expansion of hematopoietic stem cells” (UNIVERSITÉ DE MONTRÉAL, priority 2012, dated 2016)
# Columns and labels:
# CD34+CD45RA− cells = test: Dose-response assay: 50% increase in CD34+CD45RA− cell count vs vehicle (EC50); assay type: cell-based, human; conditions: concentration giving 50% increase in CD34+CD45RA− cell count vs vehicle (DMSO), dose-response 1 nM to 5000 nM; for EC50: Homo sapiens, read-out: Biological data (EC50)*
# Experimental: The following biological assays were used to assess the effect of the compounds of the invention on hematopoietic stem cell expansion. Culture medium: The culture medium used consisted of serum-free medium supplemented with the following recombinant cytokines: interleukin-6, thrombopoietin, Flt-3 ligand, and stem cell factor, each at a final concentration of 100 ng/ml, in the presence of vehicle (DMSO), positive control (SR1), or compound of the invention or a combination of compounds.
# [1] = test system: CD34+ CB cells transplanted in NSG mice; test: Engraftment of cultured CD34+ cord blood cells in NSG mice (FIG. 7); conditions: outcome of 5,000 CD34+ CB cells, 7 days culture; 8-weeks post transplantation (FIG. 7A)
# Description: These experiments were done in short term cultures i.e. 7 days.
# [2] = test system: Mobilized peripheral blood CD34(+) cells; test: Growth factor (Flt3, SCF, TPO) requirement / mitogen test (FIG. 3); assay type: cell-based, human
# Experimental: FIG. 3: Flt3, SCF, and TPO are required for compound 1 mediated stem cell expansion. Mobilized peripheral blood CD34(+) cells were cultured for 7 days in the presence or absence of the growth factors (Flt3+SCF+TPO).
# This indicate that akin to SR1, Compound 1's effect on maintenance of primitive HSC phenotype ex vivo is not due to a mitogenic effect on this population but rather on the prevention of cell differentiation.
# [3] = test system: CD34+CD45RA− cord blood cells; test: Ex vivo expansion of cord blood-derived CD34+ and CD34+CD45RA− cells (FIG. 5B, 5C); assay type: cell-based, human; conditions: cord blood
# [4] = test system: CD34+ mPB cells transplanted in NSG mice; test: Engraftment of cultured CD34+ mPB cells in NSG mice; conditions: cells cultured ten days; outcome of 50,000 and 500,000 cells; 13 week post-transplantation
# [5] = test system: CD34+ mobilized peripheral blood (mPB) cells; test: Ex vivo expansion of mobilized peripheral blood-derived CD34+ and CD34+CD45RA− cells (FIG. 5A); assay type: cell-based, human; conditions: 12-days culture
# Description: FIG. 5: A) Compound 1 expands mobilized peripheral blood-derived CD34+ and CD34+CD45RA− cell populations ex vivo. […] This observation was enhanced with the co-treatment with SR1.
# […]. The level of expansion is the same whether cultures are initiated with Compound 1, SR1, Compound 1+SR1, or control DMSO. […] […].
# [6] = test system: CD34+ mobilized peripheral blood cells; test: FACS analysis of differentiation of CD34+ mobilized peripheral blood cells (FIG. 4A); assay type: cell-based, human; conditions: 7 day expansion, optimal levels, vs DMSO control
# Description: FIG. 4A illustrates the impact of Compound 1 on mobilized peripheral blood cell differentiation. Following a 7 day expansion, a relatively pure (>85% CD34^+) population of mobilized peripheral blood was exposed to control the (DMSO) or Compound 1 or SR1 or Compound 1+SR1.
smiles,measurement,setting,value
"COC(=O)c1ccc2c(c1)[nH]c1nc(Cc3cccc(C4(C(F)(F)F)N=N4)c3)nc(NCCCN(C)CCCNC(=O)CCCC[C@@H]3SC[C@@H]4NC(=O)N[C@@H]43)c12 [Compound 53, methyl 4-((3-(methyl(3-(5-((3aS,4S,6aR)-2-oxohexahydro-1H-thieno[3,4-d]imidazol-4-yl)pentanamido)propyl)amino)propyl)amino)-2-(3-(3-(trifluoromethyl)-3H-diazirin-3-yl)benzyl)-9H-pyrimido[4,5-b]indole-7-carboxylate]",Biological data (EC50)*,CD34+CD45RA− cells,F (F=compound showed >1.3 fold expansion)
"COC(=O)c1ccc2c(c1)[nH]c1nc(Cc3ccccc3)nc(NCCCN(C)CCCNc3nc(Cc4ccccc4)nc4[nH]c5cc(C(=O)OC)ccc5c34)c12 [Compound 51, dimethyl 4,4′-(((methylazanediyl)bis(propane-3,1-diyl))bis(azanediyl))bis(2-benzyl-9H-pyrimido[4,5-b]indole-7-carboxylate)]",EC50,CD34+CD45RA− cells,< 100 nM
"CC(C)n1cnc2c(NCCc3ccc(O)cc3)nc(-c3csc4ccccc34)nc21 [SR1, StemRegenin1, reference compound]",human CD45+ engraftment / reconstitution activity,[1],human CD45+ engraftment
same,"induction of cell proliferation in the absence of growth factors (Flt3, TPO, SCF)",[2],not able to induce cell proliferation
same,expansion of CD34+CD45RA− cells,[3]; 12-days,less than 20 fold
same,total cell expansion vs DMSO (control),[3]; twelve days,the same
same,human hematopoietic engraftment (human CD45+ cells in BM),[4],consistently better than DMSO
same,total cell count increase above the input,[5],about 20 fold
same,loss of CD34 cell surface expression,[6],partly abrogated
"COC(=O)c1ccc2c(c1)[nH]c1nc(Cc3cccc(C(O)C(F)(F)F)c3)nc(NCCCN3CCCCC3)c12 (stereo not shown) [Compound 34, methyl 4-((3-(piperidin-1-yl)propyl)amino)-2-(3-(2,2,2-trifluoro-1-hydroxyethyl)benzyl)-9H-pyrimido[4,5-b]indole-7-carboxylate]",EC50,CD34+CD45RA− cells,< 100 nM
